We go through 26 compounds from patent US20050197350A1, “Novel quinoline, tetrahydroquinazoline, and pyrimidine derivatives and methods of treatment related to the use thereof” (TAISHO PHARMACEUTICAL CO., LTD., priority 2003, published 2005).

The first test deals with MCH receptors. Put plainly: MCH receptor activity class (method not given). The following applies: MCH receptor activity class 1-3 (percent of control at 10^-7 M or IC50).
`CN(C)c1cc(N[C@H]2CC[C@@H](CNC(=O)NC(c3ccccc3)c3ccccc3)CC2)nc2ccccc12` [compound 2389, N-[(cis-4-{[4-(dimethylamino)quinolin-2-yl]amino}cyclohexyl)methyl]-N′-(diphenylmethyl)urea]: the class was 2 (Class 2: The value of percent of control at 10^−7 M was from 40% to 60% or the value of IC′50 was from 50 nM to 200 nM.). In the case of `CN(C)c1ccnc(N[C@H]2CC[C@@H](CNC(=O)Nc3ccc(F)cc3F)CC2)n1` [compound 2407, N-(2,4-difluorophenyl)-N′-[(cis-4-{[4-(dimethylamino)pyrimidin-2-yl]amino}cyclohexyl)methyl]urea], the class was 2 (Class 2: The value of percent of control at 10^−7 M was from 40% to 60% or the value of IC′50 was from 50 nM to 200 nM.).

The test is the same for the next values; noted with them: MCH receptor; class by percent of control at 10^-7 M or IC50.
Turning to `CN(C)c1cc(N[C@H]2CC[C@@H](NC(=O)c3cc(C(C)(C)C)nn3Cc3ccc(Cl)cc3Cl)CC2)nc2ccccc12` [compound 142], the class is given as 3 (Class 3 The value of percent of control at 10^−7 M was more than 60% or the value of IC50 was more than 200 nM.).

As to `CN(C)c1nc(N[C@H]2CC[C@@H](NC(=S)Nc3ccc(C(F)(F)F)cc3)CC2)nc2c1CCCC2` [compound 1989], the class is 3 (Class 3 The value of percent of control at 10^−7 M was more than 60% or the value of IC50 was more than 200 nM.).

The same test, now with this note: activity class 1-3: percent of control at 10^-7 M or IC50.
`Cc1cccc(N(CCC#N)CCN[C@H]2CC[C@@H](Nc3nccc(N(C)C)n3)CC2)c1` [compound 1523]: the class is reported as 3 (Class 3 The value of percent of control at 10^−7 M was more than 60% or the value of IC50 was more than 200 nM.). For `CN(C)c1ccnc(N[C@H]2CC[C@@H](NC(=O)Oc3ccc4ccccc4c3)CC2)n1` [compound 1629], the class is given as 3 (Class 3 The value of percent of control at 10^−7 M was more than 60% or the value of IC50 was more than 200 nM.).

As to `CN(C)c1cc(N[C@H]2CC[C@@H](CNC(=O)OCc3ccc([N+](=O)[O-])cc3)CC2)nc2ccccc12` [compound 1568], the class was 3 (Class 3 The value of percent of control at 10^−7 M was more than 60% or the value of IC50 was more than 200 nM.).

The test is the same for the next values; noted with them: activity class per percent of control at 10^-7 M or IC50.
In the case of `CN(C)c1nc(N[C@H]2CC[C@@H](NC(=O)C(CC(=O)c3ccccc3)c3c[nH]c4ccccc34)CC2)nc2c1CCCC2` (relative stereo) [compound 991], the class is 2 (Class 2: The value of percent of control at 10^−7 M was from 40% to 60% or the value of IC′50 was from 50 nM to 200 nM.). Consider `CCc1cccc2c(C(CC(=O)c3ccc(C(C)(C)C)cc3)C(=O)N[C@H]3CC[C@@H](Nc4nc5c(c(N(C)C)n4)CCCC5)CC3)c[nH]c12` (relative stereo) [compound 996], for which the class is reported as 1 (Class 1: The value of percent of control at 10^−7 M was less than 40% or the value of IC50 was less than 50 nM.). Same read-out and setting: to `COc1cc(CN[C@H]2CC[C@@H](Nc3cc(N(C)C)c4ccccc4n3)CC2)cc(OC)c1O` [compound 1096] belongs 3 (Class 3 The value of percent of control at 10^−7 M was more than 60% or the value of IC50 was more than 200 nM.).

The same test, now with this note: class 1-3 by percent of control at 10^-7 M or IC50.
Consider `CN(C)c1ccnc(N[C@H]2CC[C@@H](CNC(=O)c3ccc(C#N)cc3)CC2)n1` [compound 422], for which the class is on record as 3 (Class 3 The value of percent of control at 10^−7 M was more than 60% or the value of IC50 was more than 200 nM.).

With `CN(C)c1nc(N[C@H]2CC[C@@H](NC(=O)c3cc(F)cc(C(F)(F)F)c3)CC2)nc2c1CCCC2` [compound 474], the class is 1 (Class 1: The value of percent of control at 10^−7 M was less than 40% or the value of IC50 was less than 50 nM.). Consider `COc1cccc(C(=O)N[C@H]2CC[C@@H](Nc3nc4c(c(N(C)C)n3)CCCC4)CC2)c1` [compound 456], for which the class is on record as 1 (Class 1: The value of percent of control at 10^−7 M was less than 40% or the value of IC50 was less than 50 nM.). For the compound `CN(C)c1nc(N[C@H]2CC[C@@H](NC(=O)CCCOc3ccccc3)CC2)nc2c1CCCC2` [compound 556], the class is reported as 3 (Class 3 The value of percent of control at 10^−7 M was more than 60% or the value of IC50 was more than 200 nM.).

The same test, now with this note: class by percent of control at 10^-7 M or IC50.
On to `CN(C)c1cc(N[C@H]2CC[C@@H](CNC(=O)c3ccc(Br)s3)CC2)nc2ccccc12` [compound 788], for which the class is given as 3 (Class 3 The value of percent of control at 10^−7 M was more than 60% or the value of IC50 was more than 200 nM.). Still for that read-out and setting: under `CN(C)c1nc(N[C@H]2CC[C@@H](NC(=S)Nc3ccc(Br)cc3)CC2)nc2c1CCCC2` [compound 1737] stands 3 (Class 3 The value of percent of control at 10^−7 M was more than 60% or the value of IC50 was more than 200 nM.). As for `Cc1ccnc(SCC(=O)N[C@H]2CC[C@@H](Nc3nccc(N(C)C)n3)CC2)n1` [compound 835], the class is listed as 3 (Class 3 The value of percent of control at 10^−7 M was more than 60% or the value of IC50 was more than 200 nM.).

`CN(C)c1nc(N[C@H]2CC[C@@H](NC(=O)Nc3c(Br)cc(F)cc3Br)CC2)nc2c1CCCC2` [compound 1799]: the class was 3 (Class 3 The value of percent of control at 10^−7 M was more than 60% or the value of IC50 was more than 200 nM.).

As to `CC(=O)c1cccc(C(=O)N[C@H]2CC[C@@H](Nc3cc(N(C)C)c4ccccc4n3)CC2)c1` [compound 692], the class is given as 3 (Class 3 The value of percent of control at 10^−7 M was more than 60% or the value of IC50 was more than 200 nM.). For the compound `Cc1ccnc(SCC(=O)N[C@H]2CC[C@@H](Nc3nc4c(c(N(C)C)n3)CCCC4)CC2)n1` [compound 972], the class was 2 (Class 2: The value of percent of control at 10^−7 M was from 40% to 60% or the value of IC′50 was from 50 nM to 200 nM.). With `CN(C)c1ccnc(N[C@H]2CC[C@@H](NC(=O)c3ccc(F)cc3Cl)CC2)n1` [compound 279], the class was 3 (Class 3 The value of percent of control at 10^−7 M was more than 60% or the value of IC50 was more than 200 nM.). With `C/C(=C\c1ccccc1)C(=O)N[C@H]1CC[C@@H](Nc2nccc(N(C)C)n2)CC1` [compound 305], the class is 3 (Class 3 The value of percent of control at 10^−7 M was more than 60% or the value of IC50 was more than 200 nM.). Same read-out and setting: under `CN(C)c1nc(N[C@H]2CC[C@@H](NC(=O)C3CCCC[C@H]3C(=O)c3ccccc3)CC2)nc2c1CCCC2` (some centres unmarked) [compound 969] stands 3 (Class 3 The value of percent of control at 10^−7 M was more than 60% or the value of IC50 was more than 200 nM.); under `CN(C)c1nc(N[C@H]2CC[C@@H](CNCc3csc4ccccc34)CC2)nc2c1CCCC2` [compound 1420], 3 (Class 3 The value of percent of control at 10^−7 M was more than 60% or the value of IC50 was more than 200 nM.).

Staying with this test, now noted: class by percent of control at 10^−7 M or IC50.
For `Cc1cc(N(C)C)nc(N[C@H]2CC[C@@H](NC(=O)c3cccc(C(F)(F)F)c3)CC2)n1` [compound 2954, N-(cis-4-{[4-(dimethylamino)-6-methylpyrimidin-2-yl]amino}cyclohexyl)-3-(trifluoromethyl)benzamide], the class is recorded as 1 (Class 1: The value of percent of control at 10^−7 M was less than 40% or the value of IC50 was less than 50 nM.).

In the case of `Cc1cc(N(C)C)nc(N[C@H]2CC[C@@H](CNC(=O)c3ccc(Br)cc3)CC2)n1` [compound 2762], the class is listed as 1 (Class 1: The value of percent of control at 10^−7 M was less than 40% or the value of IC50 was less than 50 nM.).
